Data on four sequences can be found in EP4656207A1, “IN VITRO METHOD FOR T[…] TARGET CELL” (Fundació Hospital Universitari Vall Hebron - Institut de …, priority 2024, dated 2025).

The subject of data set [1] is CD4^+ T cells. As to the kind of experiment: Lentiviral (anti-CD19 CAR) transduction enhancement in CD4+ T cells (flow cytometry). The class given is cell-based, human. Conditions: 72 h after transduction; differences between the four compounds not statistically significant (Figure 6). The protocol:
• 1. After isolation and activation of the CD4^+ T cells, a suspension of 10^6 cells/mL was prepared and 100 µL were added per well to a 96-well flat-bottom plate and incubated at 37°C, 5% CO2, and 100% relative humidity. After 24 h in culture, the vector was diluted to the desired concentration and mixed with the different TEs (peptides, LB, VF-1, PS, PGE2), and 50 µL per well of the vector-TEs solution was added. The A3B1:CD8:4-1BB:CD3ζ (also named ARI001-CodonOptimized3 vector), a third generation lentiviral vector encoding an anti-human CD19 CAR, was used for this assay. • 2. After 72 h post-transduction, samples were collected and stained for flow cytometry analysis: First, the entire plate contents were transferred to a pre-labeled 96-well roundbottom plate. Two washes were performed with 1X PBS, adding 100 µL per well and centrifuging the plate for 2' at 2000 rpm. In the last wash, the supernatant was discarded, and 100 µL of a working solution of eFluor™ 450 - Fixable Viability Dye Live/Dead (eBioscience™) was added and incubated for 30' at RT. • 3. Two washes were performed with 200 µL of FACS buffer (PBS 1X + 3% FBS). […] Finally, transduction efficiency was analyzed by flow cytometry to determine the percentage of CAR-positive T cells.
(A flow cytometer gives signals particle by particle.)

The conditions of data set [2]: concentrations higher than 10-15 µM; dose-dependent. As to the method: Studies with the fluorochrome Yo-Pro-1 were performed at the laboratory of Dr. Pablo Pelegrin, at the University of Murcia.
Data set [3] deals with CD34^+ cells. As to the kind of experiment: Lentiviral transduction enhancement in CD34+ hematopoietic cells (flow cytometry). Conditions: peptides at 3 µM, LB 5 mg/mL; MOI = 1; days 3, 7 and 14 after transduction; only K18-8R and LentiBoost statistically significant vs basal transduction (Figure 4). In kind it is cell-based, human. The protocol:
• 1. The CD34^+ cells were isolated from apheresis products from healthy donors and cryopreserved in liquid nitrogen until use. Cells were then thawed, counted with trypan blue, and seeded in culture-treated 96-well flat-bottom plates, about 50.000 cells per well in 100 µL of complete StemSpan™ SFEM Hematopoietic Cell Culture Medium (SFEM medium) (Stem Cell Technologies™, Vancouver, Canada), and incubated at 37°C, 5% CO2 and 100% relative humidity. The complete medium was supplemented with recombinant human stem cell factor (rhSCF), recombinant human flt3 ligand (rhFlt3-L) and recombinant human thrombopoietin (rhTpo) (all from EuroBioScience, Friesoythe, Germany). • 2. After 24 h in culture, the cells were transduced as follow: Previously, the required volume of lentiviral vector was calculated in accordance with the vector titer, the CD34^+ target cell number and the desired MOI. Prior to its use, the vector was diluted in complete SFEM medium. • 3. […] Finally, at 3, 7 and 14 days post-transduction, the cells were analyzed by flow cytometry and the plates were stored at -80° for future analyses.
(§1) Transduction efficiency was analyzed using an LSR Fortessa cell analyzer (Becton, Dickinson, New Jersey, USA), after 3, 7 or 14 days post-transduction (depending on the target cell type). […]

Data set [4] can be described thus: Antimicrobial activity. The class given is cell-based. As to conditions: concentrations higher than 10-15 µM; dose-dependent.
For data set [5], the system named is HEK-293T cells. As to the kind of experiment: Lentiviral transduction enhancement in HEK-293T cells (GFP+ cells by flow cytometry). Conditions: for transduction enhancing activity: K18-derived peptides at 1 µM compared with commercial TE, MOI = 1 (Figure 3). In kind it is cell-based, human. As to the method:
(§2) To carry out the transduction enhancement assays, 3000 cells (HEK-293T or NIH/3T3, both purchased at the ATCC) were seeded in 100 µL of culture medium (consisting of Dulbecco's Modified Eagle Medium (high glucose) (DMEM, Gibco™), supplemented with 10% fetal bovine serum (FBS), 1% L-glutamine and 1% penicillin/streptomycin (P/S) (both from Cultek S.L.U.), per well, in culture-treated flat-bottomed 96-well plates, and incubated for 24 h at 37° with 5% CO2 and 100% relative humidity.
The vector was diluted in complete medium, and the appropriate amounts were added to each well at the chosen MOI into a final volume of 200 µL per well, in the absence or presence of the chosen TE (peptides, LB, VF-1, PS, RN, PGE2) at different concentrations and following the manufacturer's recommendations. The culture medium was changed 24 h after transduction and the cells were incubated for 48 h more until the plate was analyzed 3 days post-transduction by flow cytometry.
All experiments included a non-transduced control (cells only) without vector exposure, and a control with vectors but without TE (basal transduction). In all assays, a minimum of three replicates (technical replicates) were performed per experimental condition, and were repeated a minimum of three times (experimental replicates) for statistical analysis.
Transduction efficiency was analyzed using an LSR Fortessa cell analyzer (Becton, Dickinson, New Jersey, USA), after 3, 7 or 14 days post-transduction (depending on the target cell type). First, cells were transferred using a multichannel pipette to a U-bottom 96-well plate. Live and dead cells were dis-criminated using 1 µg/mL 7-amino-actinomycin D (7-AAD).
To analyze the transduction efficacy and cytotoxicity of the compounds used, different gates of analysis were defined. Samples of transduced cells (labeled and unlabeled with PI or 7-AAD), with a minimum of 10.000 events in the relevant gate, were acquired. Further, appropriate thresholds were established to define the cell populations. Four final gates were created and applied sequentially: • Gate 1. Plotting forward scatter high or FSC-H (Forward scatter height) versus forward scatter area or FSC-A (Forward scatter area). Here single events were gated to eliminate doublets. • Gate 2. Plotting the Side scatter area (SSC-A) against the Forward scatter area (FSC-A). This gate was used to eliminate cellular debris and atypical and undesired events, taking into account their morphology and complexity. • Gate 3. Thanks to the labeling of the cells with PI or 7-AAD it was possible to calculate the percentage of dead cells and eliminate them from the study. Only live cells were considered for the subsequent analysis gate. • Gate 4. The percentage of live transduced cells was obtained using eGFP fluorescence (FL1). As an additional parameter, the Mean Fluorescence Intensity (MFI) of the transduced cells was measured. The MFI is the mean of all fluorescence intensities of individual cells (or events) in a desired population. In our case, the MFI values obtained represented the mean fluorescence level of eGFP in the transduced cells (gate 4). All data were obtained and analyzed using FACSDiva software v6.2 and FlowJo v10 software (both from BD Biosciences).

For data set [6], the system named is NIH/3T3 cells. Nature of the data set: Lentiviral transduction enhancement in NIH/3T3 cells (GFP+ cells and living cells by flow cytometry). In kind it is cell-based, murine. Conditions: micellar peptide at 1 µM; MOI = 1; GFP+ cells 72 h after vector exposure; compared with other TEs (Figure 1). The protocol:
as §2
The vector was diluted in complete medium, and the appropriate amounts were added to each well at the chosen MOI into a final volume of 200 µL per well, in the absence or presence of the chosen TE (peptides, LB, VF-1, PS, RN, PGE2) at different concentrations and following the manufacturer's recommendations. The culture medium was changed 24 h after transduction and the cells were incubated for 48 h more until the plate was analyzed 3 days post-transduction by flow cytometry. […]
as §1
To analyze the transduction efficacy and cytotoxicity of the compounds used, different gates of analysis were defined. […] The percentage of live transduced cells was obtained using eGFP fluorescence (FL1). […]

The subject of data set [7] is NK cells. Nature of the data set: Lentiviral transduction enhancement in primary NK cells (flow cytometry). In kind it is cell-based, human. As to conditions: MOI = 5; for fold changes: fold change relative to basal transduction, 1.5 µM. As to the method:
• 1. Total blood samples were collected and processed in less than 4 h. After obtaining the peripheral blood mononuclear cells (PBMCs) by density gradient centrifugation (Ficoll), NK cells (following the instructions of the Miltenyi Biotec isolation kit) from human they were seeded in a 24-well plate [10^6 cells per well in 1 mL of complete medium (NK MACS supplemented with 5% AB serum (Tebu-Bio, Le Perray, France), recombinant human IL-2 (rhIL-2) and recombinant human IL-15 (rhIL-15), both from Miltenyi Biotec)], and incubated at 37°C, 5% CO2, and 100% relative humidity. • 2. After 48 h in culture, cells were counted, and about 40,000 cells were seeded in 100 µL of complete medium (per well) in culture-treated 96-well flat-bottom plate. The transduction process was performed as follows: • 3. Calculate the required volume of lentiviral vector for a known number of NK cells and desired MOI, and the vector diluted in complete medium. Simultaneously, prepare all the enhancers to be used in the assay (micellar peptides, LB, PS, VF-1, etc.) at the concentrations recommended by the manufacturers. […] At days 3, 7 and 14 post-transduction, the cells were analyzed by flow cytometry.
as §1
To analyze the transduction efficacy and cytotoxicity of the compounds used, different gates of analysis were defined. […] The percentage of live transduced cells was obtained using eGFP fluorescence (FL1). As an additional parameter, the Mean Fluorescence Intensity (MFI) of the transduced cells was measured. The MFI is the mean of all fluorescence intensities of individual cells (or events) in a desired population. In our case, the MFI values obtained represented the mean fluorescence level of eGFP in the transduced cells (gate 4). All data were obtained and analyzed using FACSDiva software v6.2 and FlowJo v10 software (both from BD Biosciences).

Regarding “LLNIKVKLEAEIRRRRRRRR (poloxamer F-127 micelles) [K18-8R, first 12 amino acids of K18 plus an 8R tail; conjugated to poloxamer F-127 polymeric micelles]”, in data set [1], the transduction efficiency entry is given as “highest transduction efficiency”. Besides, the cytotoxic activity result in data set [2] is given as “predominated”. Also, the hemolytic activity entry in data set [2] was “predominated”. Further, the “enhancing efficacy (transduction efficiencies by flow cytometry)” value in data set [3] was “highest enhancing efficacy”. For the same sequence, the antimicrobial activity entry in data set [4] is given as “predominated”. In addition, the “transduction enhancing activity at higher concentrations” value in data set [5] (5 µM or more, MOI 1 and 5, perhaps due to toxicity (Figure 2)) is reported as “decreased”. Also, the transduction enhancing activity entry in data set [5] is on record as “highest activity”; in data set [6], “highest transduction enhancing activity”. Moreover, the transduction enhancement entry in data set [5] (peptide at 1 µM, MOI 1 and 5, experiment made only once (Figure 2)) is recorded as “highest transduction enhancement”. Moreover, the fold changes in data set [7] (day 3) is 2.2; in data set [7] (day 14) it was 3.5. In data set [7] (peptides at 1.5 µM, compared with scrambled control, micelle alone and LB (Figure 7)), the enhancing activity entry is given as “highest enhancing activity”.
On to LLNVKMALDIEIRRRRRRRR [DIF-P-8R], for which the enhancing activity result in data set [5] (several concentrations, MOI 1 and 5, experiment made only once (Figure 2)) is “enhancing activity, that was higher at 5-15 µM than at 1 µM”.
Take “LLNIKVKLEAEIATYRRLLE (poloxamer F-127 micelles) [K18, conjugated to poloxamer F-127 polymeric micelles]”: the transduction enhancing activity entry in data set [5] is “highest activity”.
With “LLNKEIKIEVALARRRRRRRR (polymeric micelles) [Sc-K18-8R, conjugated to polymeric micelles, reference compound]”, the “enhancing efficacy (transduction efficiencies by flow cytometry)” value in data set [3] is “significant enhancing activity”.
